Consider 2 compounds from patent publication US6403631B1, “Method and compositions for enhancing pregnancy success in an animal” (Equitech Laboratories, Inc., priority 1995, dated 2002).

Structures are written as SMILES.

For data set [1], the system named is conceptus membrane segments. The experiment in a line: In vitro estradiol production by day 16 conceptus membrane segments (Example 7). It is filed as cell-based, mares. As to the method:
Treatment with melatonin at estrus results in greater in vitro estradiol biosynthetic capability of day 16 conceptus membrane segments given androgen precursors. […] The extra-embryonic membranes were dissected into 4×4 mm^2 segments and cultured in the presence or absence of supplemental testosterone. Conceptus membrane fragments were cultured for 24 hours and the culture medium analyzed for estradiol.
Results and conclusions. Following completion of culture, conceptus membrane segments were frozen and assayed for DNA content. All estradiol concentrations measured in culture media were then adjusted for the DNA content of the appropriate conceptus membrane segment.

Data set [2] concerns cyclic pony mares. The experiment in a line: Melatonin at proestrus: plasma melatonin (RIA), E2, P4, LH (Example 2). The conditions noted are these: 100 μg at proestrus.
Experimental: Treatments were administered at 09:59:45 at proestrus only. Test animals were divided into two groups: control (1.0 ml 0.9% saline, n=3), and melatonin (100 μg melatonin in 1.0 ml 0.9% saline, n=3). Ovarian follicular activity was monitored daily by rectal palpation and/or ultrasonography. Blood samples were collected every 10 minutes for a period of 8 hours at proestrus, estrus, and diestrus. Plasma melatonin concentrations were measured by radioimmunoassay (RIA) to determine the effect of control and melatonin treatments administered at proestrus.
In another data set the test system is hysterectomized mares. In words: Melatonin at estrus, morning v. afternoon, in hysterectomized mares: plasma progesterone (Example 5). It is filed as in vivo. As to the method: Because hysterectomized mares are unable to generate a luteolytic secretion of prostaglandin F2α (PGF), luteal function and progesterone production continue longer than in uterine-intact mares.
The experiment was repeated in full using the same design with the exception that melatonin or control injections were administered in the afternoon rather than the morning. Blood samples were collected daily from day of treatment for 30 days post-ovulation.

Another data set has as its system marmoset corpus luteum. The conditions noted are these: in vivo perfusion, marmosets; cited from earlier work.
The test system of another data set is pony mares. The experiment in a line: Bolus melatonin at estrus: plasma E2, P4, LH and cycle length (Example 1A). It is filed as in vivo. As to the method: A. Effect of bolus administration of melatonin on estradiol, progesterone, and luteinizing hormone levels. The effect of bolus melatonin administration during estrus on plasma estradiol (E2), progesterone (P4), and luteinizing hormone (LH) was determined. The interval from treatment to ovulation (OV1) and duration of the subsequent estrous cycle, ending at OV2, were also measured. Estrous cycles of eight pony mares were synchronized. Ovarian follicular activity was monitored daily, and sexual behavior was monitored with a stallion. Blood samples were collected daily. Upon detection of behavioral estrus and a 30 mm diameter follicle, mares were assigned to either a control group or melatonin group. Blood samples were collected for 8 hours (09:00 to 17:00) at 30 minute intervals. Melatonin-group mares were given an injection of 100 μg melatonin in 1 ml of sterile saline into the jugular vein, while control-group mares received 1 ml sterile saline.

The subject of data set [3] is cyclic pony mares. In words: Melatonin at proestrus or estrus: plasma hormones in the subsequent cycle (Example 3). It is filed as in vivo. As to the method:
Blood samples were collected every 30 minutes and were collected daily through the next subsequent estrus and ovulation.

Data set [4] deals with corpora lutea segments from cycling mares. In words: In vitro progesterone production by corpus luteum segments (Example 8). The conditions noted are these: 1, 10 or 100 nM melatonin; presence or absence of 100 ng hCG. The data set is classed as cell-based. The procedure:
Corpus luteum tissue was collected surgically and was dissected into segments approximately 2×2 mm^2. Segments were incubated in the following manner: [table] At completion of culture, segments were frozen until assayed for DNA content. All media progesterone concentrations were subsequently adjusted for DNA content of the appropriate segment.

For data set [5], the system named is mares. The experiment in a line: Melatonin at mid-diestrus: plasma progesterone (Example 4). The data set is classed as in vivo. The conditions noted are these: 100 μg on day 8 post-ovulation. As to the method:
Treatments were given at 10:59:45. Daily blood sampling was performed from estrus preceding treatment to 7 days after the next subsequent ovulation. Blood samples were collected every 30 minutes for 10 hours each day of sampling.

Another data set deals with accessory corpora lutea. In words: Multiple melatonin administrations: accessory corpora lutea progesterone (Example 6). It is filed as in vivo, mares. The conditions noted are these: treatment just prior to formation of accessory corpora lutea (day 35-45 of pregnancy). From the text: Mares are unique in that they develop and ovulate a new cohort of follicles around day 35-45 of pregnancy. […] Mares which received melatonin treatment at estrus also received daily melatonin treatment from day +35 to day +45 of pregnancy.

For another data set, the system named is cows. In words: Melatonin in cows: plasma progesterone (FIG. 5A). The conditions noted are these: vs saline control, initial results. The data set is classed as in vivo.
The test system of data set [6] is human and bovine granulosa cells. The conditions noted are these: in vitro; cited from earlier work.
In data set [7] the test system is ewes. In words: Bolus melatonin at estrus in ewes: plasma progesterone (Example 12). The data set is classed as in vivo. The conditions noted are these: 400 μg i.v., 2 to 3 doses at estrus; Day 5 to Day 15 post-estrus; vs saline. The procedure:
A. Effect of bolus administration of melatonin on progesterone levels. The effect of bolus melatonin administration during estrus on plasma progesterone was determined. The duration of the estrous cycle was also measured. Estrous cycles of ten ewes were monitored by daily behavioral monitoring with a vasectomized ram. […] Blood samples were collected daily for an entire estrous cycle. Melatonin-treated ewes (n=5) were administered 400 μg melatonin i.v. in the early morning (07:30 to 08:30hr) and late afternoon (16:30 to 17:30hr). Five ewes were treated similarly, but were administered saline as control at the same times. Estrus duration was approximately 24 to 36 hr, thus ewes were administered 2 to 3 doses of melatonin to assure treatment during estrus. Progesterone levels were higher from Day 5 to Day 15 post-estrus in melatonin-treated ewes compared with saline-treated ewes. The increased progesterone concentrations following administration of melatonin, as compared to a saline control, is shown in FIG. 5B.

Data set [8] concerns mares. In words: Bolus melatonin at estrus: conception, plasma progesterone and conceptus diameter (Example 1B). It is filed as in vivo. The conditions noted are these: 100 μg at estrus. As to the method:
B. Effect on conception of bolus administration of melatonin during estrus. […] Pregnancy was monitored by ultrasonography after day 10 post-ovulation. Blood samples were collected daily from the day of treatment to day 16 post-ovulation, when conceptuses were removed. Conceptus diameter was measured daily beginning day 10 post-ovulation with ultrasound.

The next data set has as its system corpus luteum. The experiment in a line: Corpus luteum biopsy morphology after melatonin at estrus (Example 9). The data set is classed as in vivo, mares. The conditions noted are these: light and electron microscopy. From the text: Following collection of conceptuses as described in Examples 7 and 8, mares were taken to surgery and the corpus luteum biopsied. Biopsies were taken from each mare, control and melatonin-treated, for both light and electron microscopy.

Data set [9] has as its system ewes. The conditions noted are these: orally administered to ewes; cited from earlier work.
The test system of a further data set is sheep. The conditions noted are these: subcutaneous, multiple daily administrations; cited from earlier work.
Setting [10] is: 100 μg i.v. at estrus, vs control.

Text for cows: FIGS. 5A and 5B show the effect on plasma progesterone (P4) concentration (ng/ml), compared to a saline control, following administration of melatonin to cows and ewes in accordance with the subject invention.

Turning to `C[C@]12CC[C@H]3[C@@H](CCC4=CC(=O)CC[C@@]43C)[C@@H]1CC[C@@H]2O` [Testosterone, testosterone], the “estradiol production by conceptuses in vitro” value in data set [1] (testosterone supplied to the culture) is “significantly increased”.

Take `COc1ccc2[nH]cc(CCNC(C)=O)c2c1` [melatonin, N-acetyl-5-methoxytryptamine]: the “plasma LH concentrations” value was “not different” with cyclic pony mares [2] (8-hour proestrus sampling, vs control) and “did not differ” with cyclic pony mares [3] (100 μg at proestrus or estrus, vs controls). In addition, in the data set on cyclic pony mares [2] (by 3 hours post-treatment), the “plasma melatonin concentrations vs control” value is “not different”. In addition, the “plasma estradiol concentrations over 8-hour sampling at proestrus” value in the data set on cyclic pony mares [2] (no change in controls) is recorded as “decreased following treatment”. The “mean plasma progesterone (P4) concentrations” value in the data set with cyclic pony mares [2] (sampled at diestrus, p=0.001 vs control) is reported as “significantly higher”; in the data set on cyclic pony mares [2] (sampled at proestrus or estrus, vs control), “not different”. Also, the “mean plasma estradiol concentrations” value in the data set on cyclic pony mares [2] (sampled at estrus, p=0.006 vs control) is “lower”; in the data set on cyclic pony mares [2] (sampled at proestrus or diestrus, vs control), “not different”. Besides, the “plasma melatonin concentrations after administration” value with cyclic pony mares [2] (vs control, p=0.0001, RIA) is on record as “higher”. Moreover, the plasma progesterone concentrations entry is listed as “higher” in the data set on hysterectomized mares (100 μg at estrus, morning or afternoon, p<0.03 vs control); “increased” in the data set with mares [8] (bred mares, to day 16 post-ovulation, p=0.026 vs control); “increased” in the data set on ewes [9]. In addition, the “plasma progesterone, melatonin-treated vs saline-treated mares” value in the data set on hysterectomized mares (at approximate time of luteal regression (day 14 to 16)) is given as “no longer detectable differences”. Further, in the data set with marmoset corpus luteum, the “progesterone production by corpus luteum” value is given as “stimulated”. Also, the “pattern of E2 over the cycle” value with pony mares (100 μg i.v. at estrus, control pattern cubic, increases at OV1 and OV2) was “quadratic, with increases noted only at OV2”. Further, the “plasma P4 levels vs control” value with pony mares (100 μg i.v. at estrus, p<0.007) is recorded as “higher”. Moreover, the “duration of subsequent estrous cycle (OV1 to OV2)” value in the data set on pony mares (setting [10]) is recorded as “did not differ between groups”. Besides, the “interval from treatment to OV1” value in the data set on pony mares (setting [10]) is listed as “did not differ between groups”. Moreover, the “plasma LH levels” value in the data set with pony mares (setting [10]) is listed as “not different between groups”. Besides, in the data set with pony mares (100 μg melatonin i.v. at estrus, 8 h sampling, p<0.001), the “plasma E2 secretion following administration” value was “declined”. Also, in the data set with cyclic pony mares [3] (100 μg at estrus), the “plasma estradiol concentrations at time of treatment” value is recorded as “acute decline”. Also, the “estradiol concentrations during subsequent estrous cycle” value in the data set on cyclic pony mares [3] (100 μg at proestrus or estrus, p=0.001 vs control) is listed as “different”. For the same compound, in the data set with cyclic pony mares [3] (100 μg at proestrus or estrus, p=0.007 vs control), the “plasma progesterone response, ovulation through next ovulation” value is “higher”. Also, the “treatment at proestrus compared with treatment at estrus” value with cyclic pony mares [3] (100 μg melatonin) is recorded as “not different”. Besides, the “plasma progesterone, standardized analysis” value with cyclic pony mares [3] (ovulation to day 7 and backwards from next ovulation, p=0.01 vs control) is given as “higher”. For the same compound, the “media progesterone concentrations, adjusted for DNA content” value in data set [4] is “no effect”. In the data set with mares [5], the “plasma progesterone concentrations during 10-hour sampling period” value is “did not alter”. In addition, the “plasma progesterone concentrations throughout rest of luteal phase” value in the data set on mares [5] is given as “Nor were plasma progesterone concentrations different”. For the same compound, the “plasma progesterone concentrations following next subsequent ovulation” value with mares [5] (until day 7 post-ovulation, p=0.034) is reported as “higher”. Further, the “progesterone production by accessory corpora lutea” value in the data set on accessory corpora lutea is given as “enhanced progesterone production”. In the data set on cows, the “plasma progesterone (P4) concentrations” value is reported as “no effect”. Besides, the production of progesterone entry in data set [6] is given as “enhanced”. For the same compound, the progesterone levels entry in the data set with ewes [7] was “higher”. The conceptus diameter entry with mares [8] (day 13 to 15 post-ovulation, vs control) is “larger”. For the same compound, the “early embryonic growth rate” value with mares [8] (days 10 to 13 post-ovulation, ultrasound) is reported as “did not appear to differ”. The corpus luteum morphology entry in the data set on corpus luteum is listed as “greater percent of cells with pleomorphic nuclei”. Also, in data set [1] (conceptuses from mares treated at estrus, no supplemental testosterone, 24 hours culture), the “estradiol concentrations in culture media, adjusted for DNA content” value is reported as “did not differ”. Also, the “estradiol production in vitro, adjusted for DNA content” value in data set [1] (conceptuses from mares treated at estrus, with testosterone, p=0.01 vs all other groups) is “greater”. In addition, the progesterone concentrations entry with sheep was “increased”.
